Source: patent US10836758B2, “Acyl sulfonamide NaV1.7 inhibitors” (BRISTOL-MYERS SQUIBB COMPANY, priority 2016, dated 2020)

Target: NaV1.7 (Homo sapiens (Human), UniProt Q15858)
Experiment: NaV1.7 IC50 of Table 1 (IonWorks Barracuda population patch clamp or ligand binding assay; table does not say which)
Format: cell-based
Conditions: HEK 293 cells expressing NaV1.7
Description: Ion Works Barracuda population patch clamp (PPC). PPC measurements were performed using an IonWorks Barracuda instrument (Molecular Devices Corporation, Union City, Calif.) using either PatchPlate™ PPC substrates (Molecular Devices Corporation) with 64 apertures per well. The ability to average currents from 64 recordings from each well greatly improves data consistency and recording success rates in the measurement of NaV1.7 mediated ionic currents. Calculated leak current was digitally subtracted from the total cell NaV1.7 current for each sample point acquired.
NaV1.7 currents were elicited by a voltage clamp protocol designed to bias the NaV1.7 channels to their inactivated state as follows. […] This was followed by a relatively brief hyperpolarization to −100 mv for 300 ms, then a 20 msec test pulse to −20 mV to elicit the NaV1.7 current used to measure the pharmacology of all test compounds. Compounds were incubated for 600 sec between the pre- and post-compound reads. […] The same solutions were used to record NaV1.5 currents, with the following voltage clamp protocol. NaV1.5 currents were elicited by a voltage clamp protocol designed to bias the NaV1.5 channels to their inactivated state as follows. […] This was followed by a relatively brief hyperpolarization to −100 mv for 30 ms, then a 20 msec test pulse to −10 mV to elicit the NaV1.5 current used to measure the pharmacology of all test compounds.
HEK 293 cells expressing NaV1.7 and NaV1.5 channels, were used (Essen Biosciences, Ann Arbor, Mich.). […] Cells were grown to 70% to 90% confluence in a flask and removed from the incubator (37° C., 5% CO2) 1 to 3 days after plating. Growth medium was aspirated from the culture flasks. […] Next a total of 2 mL TrypLE (Gibco) solution was added, and the flasks containing cells were sat for 3 min at RT, after which, the cells became visibly rounded and were easily dislodged from the bottom of the flask with a few brief taps on a solid surface. A total of 8 mL of media was added to the flask to inactivate the TrypLE, and the mixture was centrifuged at 910 rpm for 4 min. The cell supernatant was decanted, and the cell pellets were resuspended in 5-6 mL of external solution followed by gentle triturations using a 10 ml pipette, and transferred to a 15 ml conical tube and immediately brought to the IW Barracuda instrument.
Peak membrane currents were analyzed with IW Barracuda software and exported to Excel for further analysis. Concentration response curve fitting was performed with BMS in-house software. IC50 values were obtained by fits of the Hill equation to the average percent inhibition data plotted versus compound concentration. […] Results are reported in Table 1 (NaV1.7 Barra IC50 in nM and NaV1.5 Barra IC50 in nM).
hNaV1.7 binding affinities were determined with a filtration binding assay using purified membranes from HEK293 cells stably expressing hNaV1.7. HEK293 cells from a 10-stack cell culture flask (approximately 10^10 cells) were dissociated, frozen, and stored at −80° C. To prepare membranes, the frozen cell pellet was thawed and suspended in 6 ml hypotonic lysis buffer (50 mM HEPES, 0.1% mammalian protease inhibitor cocktail). 1 ml of resuspended cells was added to an additional 6 ml of lysis buffer and homogenized with 30 strokes of a tight pestle in a glass homogenizer. Homogenate was centrifuged at 1000×g for 10 minutes at 4° C. and the resulting supernatant was further centrifuged at 38,500×g for 60 minutes at 4° C. The resulting pellet was resuspended in binding buffer (50 mM HEPES, 130 mM NaCl, 5.4 mM KCl, 0.8 mM MgCl2, 5 mM glucose, pH 7.4) and needle homogenized with a 25 gauge needle. Protein concentration was determined with a BCA protein assay. Purified membranes were aliquoted, flash frozen in an ethyl alcohol dry ice bath, and stored at −80° C.

Sequence of NaV1.7 (Q15858 whole entry): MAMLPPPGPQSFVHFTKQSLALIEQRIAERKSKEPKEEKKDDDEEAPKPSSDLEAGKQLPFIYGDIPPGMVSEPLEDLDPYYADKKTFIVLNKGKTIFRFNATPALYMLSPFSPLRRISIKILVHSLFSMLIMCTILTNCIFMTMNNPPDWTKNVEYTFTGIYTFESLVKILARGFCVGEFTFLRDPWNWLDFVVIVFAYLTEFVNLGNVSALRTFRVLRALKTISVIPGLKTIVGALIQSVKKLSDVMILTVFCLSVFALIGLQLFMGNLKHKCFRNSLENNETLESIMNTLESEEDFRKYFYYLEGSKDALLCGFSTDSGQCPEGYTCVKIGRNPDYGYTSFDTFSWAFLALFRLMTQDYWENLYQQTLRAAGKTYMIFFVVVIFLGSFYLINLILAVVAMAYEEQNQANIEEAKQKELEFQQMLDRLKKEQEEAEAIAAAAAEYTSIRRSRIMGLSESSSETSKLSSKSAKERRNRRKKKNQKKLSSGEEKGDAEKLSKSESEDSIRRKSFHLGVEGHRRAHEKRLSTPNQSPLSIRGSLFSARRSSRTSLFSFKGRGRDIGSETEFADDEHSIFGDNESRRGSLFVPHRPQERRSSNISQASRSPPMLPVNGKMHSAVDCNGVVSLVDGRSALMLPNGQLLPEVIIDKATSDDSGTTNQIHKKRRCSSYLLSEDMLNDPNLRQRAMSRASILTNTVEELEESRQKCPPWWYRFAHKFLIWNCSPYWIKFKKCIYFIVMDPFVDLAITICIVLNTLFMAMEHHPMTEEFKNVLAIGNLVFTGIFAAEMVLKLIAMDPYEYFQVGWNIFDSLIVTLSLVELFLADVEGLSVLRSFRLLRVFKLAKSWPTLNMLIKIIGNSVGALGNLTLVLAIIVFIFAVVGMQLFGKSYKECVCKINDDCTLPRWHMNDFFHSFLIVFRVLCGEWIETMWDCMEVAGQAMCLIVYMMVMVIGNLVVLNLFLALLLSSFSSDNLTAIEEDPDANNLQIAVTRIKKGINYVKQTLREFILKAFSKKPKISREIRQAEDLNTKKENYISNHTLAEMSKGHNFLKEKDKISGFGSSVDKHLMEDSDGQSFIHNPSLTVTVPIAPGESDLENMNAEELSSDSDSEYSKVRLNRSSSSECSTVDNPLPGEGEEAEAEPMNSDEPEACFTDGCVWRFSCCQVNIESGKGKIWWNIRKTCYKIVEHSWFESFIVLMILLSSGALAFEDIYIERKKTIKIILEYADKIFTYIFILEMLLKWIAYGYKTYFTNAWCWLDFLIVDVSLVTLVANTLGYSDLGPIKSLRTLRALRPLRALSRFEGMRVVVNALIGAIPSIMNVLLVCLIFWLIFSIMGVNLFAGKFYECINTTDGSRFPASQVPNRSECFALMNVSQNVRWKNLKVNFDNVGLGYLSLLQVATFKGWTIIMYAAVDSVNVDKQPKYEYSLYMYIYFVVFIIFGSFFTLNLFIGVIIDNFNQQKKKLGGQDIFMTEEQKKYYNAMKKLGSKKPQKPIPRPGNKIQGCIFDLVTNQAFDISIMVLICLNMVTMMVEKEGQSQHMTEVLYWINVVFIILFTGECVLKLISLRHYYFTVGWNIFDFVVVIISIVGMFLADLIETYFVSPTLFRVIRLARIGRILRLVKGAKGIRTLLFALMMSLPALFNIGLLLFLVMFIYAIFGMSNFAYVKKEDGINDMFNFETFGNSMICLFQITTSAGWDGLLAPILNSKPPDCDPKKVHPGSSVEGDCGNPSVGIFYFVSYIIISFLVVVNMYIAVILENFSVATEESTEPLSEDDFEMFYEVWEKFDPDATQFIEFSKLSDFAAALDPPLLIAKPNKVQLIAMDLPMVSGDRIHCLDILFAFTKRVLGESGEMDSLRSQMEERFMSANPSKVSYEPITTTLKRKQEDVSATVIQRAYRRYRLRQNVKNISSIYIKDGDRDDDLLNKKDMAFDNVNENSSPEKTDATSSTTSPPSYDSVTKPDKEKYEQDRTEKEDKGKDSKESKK

| SMILES | IC50 [nM] |
| --- | --- |
| O=S(=O)(Nc1nccs1)c1cc(Cl)c(NCCC2CCCNC2)cc1F (stereo not shown) [Example 2, 5-Chloro-2-fluoro-4-((2-(piperidin-3-yl)ethyl)amino)-N-(thiazol-2-yl)benzenesulfonamide] | 12 |
| CN1CCC(CCNc2cc(F)c(S(=O)(=O)Nc3nccs3)cc2Cl)CC1 [Example 5, 5-Chloro-2-fluoro-4-((2-(1-methylpiperidin-4-yl)ethyl)amino)-N-(thiazol-2-yl)benzenesulfonamide] | 70 |
| O=S(=O)(Nc1nccs1)c1cc(Cl)c(NCC2CNCCO2)cc1F (stereo not shown) [Example 6, 5-Chloro-2-fluoro-4-((morpholin-2-ylmethyl)amino)-N-(thiazol-2-yl)benzenesulfonamide] | 67 |
| O=S(=O)(Nc1nccs1)c1cc(Cl)c(NCC2(CN3CCOCC3)CC2)cc1F [Example 8, 5-Chloro-2-fluoro-4-(((1-(morpholinomethyl)cyclopropyl)methyl)amino)-N-(thiazol-2-yl)benzenesulfonamide] | 181 |
| O=S(=O)(Nc1nccs1)c1cc(Cl)c(NCC2(CN3CCCC3)CC2)cc1F [Example 12, 5-Chloro-2-fluoro-4-(((1-(pyrrolidin-1-ylmethyl)cyclopropyl)methyl)amino)-N-(thiazol-2-yl)benzenesulfonamide] | 11 |
| O=S(=O)(Nc1nccs1)c1cc(Cl)c(NCCC2CCNC2)cc1F (stereo not shown) [Example 13, 5-Chloro-2-fluoro-4-((2-(pyrrolidin-3-yl)ethyl)amino)-N-(thiazol-2-yl)benzenesulfonamide] | 17 |
| O=S(=O)(Nc1nccs1)c1cc(Cl)c(NCC2CNC2)cc1F [Example 15, 4-((Azetidin-3-ylmethyl)amino)-5-chloro-2-fluoro-N-(thiazol-2-yl)benzenesulfonamide] | 394 |
| O=S(=O)(Nc1nccs1)c1cc(Cl)c(NCCC2CNC2)cc1F [Example 16, 4-((2-(Azetidin-3-yl)ethyl)amino)-5-chloro-2-fluoro-N-(thiazol-2-yl)benzenesulfonamide] | 29 |
| N[C@H]1CC[C@@H](CNc2cc(F)c(S(=O)(=O)Nc3ncns3)cc2Cl)CC1 [Example 19, 4-((((1s,4s)-4-Aminocyclohexyl)methyl)amino)-5-chloro-2-fluoro-N-(1,2,4-thiadiazol-5-yl)benzenesulfonamide] | 16 |
| N[C@H]1CC[C@@H](CNc2cc(F)c(S(=O)(=O)Nc3nccs3)cc2Cl)CC1 [Example 20, 4-((((1s,4s)-4-Aminocyclohexyl)methyl)amino)-5-chloro-2-fluoro-N-(thiazol-2-yl)benzenesulfonamide] | 7 |
| N[C@H]1CC[C@H](CNc2cc(F)c(S(=O)(=O)Nc3nccs3)cc2Cl)CC1 [Example 21, 4-((((1r,4r)-4-Aminocyclohexyl)methyl)amino)-5-chloro-2-fluoro-N-(thiazol-2-yl)benzenesulfonamide] | 398 |
| CNC1CCC(CNc2cc(F)c(S(=O)(=O)Nc3nccs3)cc2Cl)CC1 (stereo not shown) [Example 23, 5-Chloro-4-(((4-(methylamino)cyclohexyl)methyl)amino)-2-fluoro-N-(thiazol-2-yl)benzenesulfonamide] | 16 |
| CN(C)C1CCC(CNc2cc(F)c(S(=O)(=O)Nc3nccs3)cc2Cl)CC1 (stereo not shown) [Example 24, 5-Chloro-4-(((4-(dimethylamino)cyclohexyl)methyl)amino)-2-fluoro-N-(thiazol-2-yl)benzenesulfonamide] | 69 |
| O=S(=O)(Nc1nccs1)c1cc(Cl)c(NCC2CCC(N3CCC3)CC2)cc1F (stereo not shown) [Example 25, 4-(((4-(Azetidin-1-yl)cyclohexyl)methyl)amino)-5-chloro-2-fluoro-N-(thiazol-2-yl)benzenesulfonamide] | 50 |
| O=S(=O)(Nc1nccs1)c1cc(Cl)c(NCC2CCC(N3CCOCC3)CC2)cc1F (stereo not shown) [Example 26, 5-Chloro-2-fluoro-4-(((4-morpholinocyclohexyl)methyl)amino)-N-(thiazol-2-yl)benzenesulfonamide] | 27 |

Continued, values first:

| IC50 [nM] | SMILES |
| --- | --- |
| 15 | NC1CCC(CCOc2cc(F)c(S(=O)(=O)Nc3ncns3)cc2F)(c2ccccc2)CC1 (single isomer, unassigned) [Example 49, 4-(2-(4-amino-1-phenylcyclohexyl)ethoxy)-2,5-difluoro-N-(1,2,4-thiadiazol-5-yl)benzenesulfonamide] |
| 473 | NC1CCC(CCOc2cc(F)c(S(=O)(=O)Nc3ncns3)cc2F)(c2ccccc2)CC1 (single isomer, unassigned) [Example 50, 4-(2-(4-amino-1-phenylcyclohexyl)ethoxy)-2,5-difluoro-N-(1,2,4-thiadiazol-5-yl)benzenesulfonamide] |
| 78 | CC1(CCOc2cc(F)c(S(=O)(=O)Nc3ncns3)cc2F)CCC(N)CC1 (single isomer, unassigned) [Example 56, 4-(2-((1s,4s)-4-Amino-1-methylcyclohexyl)ethoxy)-2,5-difluoro-N-(1,2,4-thiadiazol-5-yl)benzenesulfonamide] |
| 383 | CC1(CCOc2cc(F)c(S(=O)(=O)Nc3ncns3)cc2F)CCC(N)CC1 (single isomer, unassigned) [Example 57, 4-(2-((1s,4s)-4-Amino-1-methylcyclohexyl)ethoxy)-2,5-difluoro-N-(1,2,4-thiadiazol-5-yl)benzenesulfonamide] |
| 52 | NC1CCC(COc2cc(F)c(S(=O)(=O)Nc3ncns3)cc2F)(Cc2ccc(Cl)c(F)c2)CC1 (single isomer, unassigned) [Example 61, 4-((4-amino-1-(4-chloro-3-fluorobenzyl)cyclohexyl)methoxy)-2,5-difluoro-N-(1,2,4-thiadiazol-5-yl)benzenesulfonamide] |
| 55 | NC1CCC(COc2cc(F)c(S(=O)(=O)Nc3ncns3)cc2F)(Cc2ccc(Cl)c(F)c2)CC1 (single isomer, unassigned) [Example 62, 4-((4-amino-1-(4-chloro-3-fluorobenzyl)cyclohexyl)methoxy)-2,5-difluoro-N-(1,2,4-thiadiazol-5-yl)benzenesulfonamide] |
| 40 | CN1CCN(C2CCC(CNc3cc(F)c(S(=O)(=O)Nc4nccs4)cc3Cl)CC2)CC1 (stereo not shown) [Example 27, 5-Chloro-2-fluoro-4-(((4-(4-methylpiperazin-1-yl)cyclohexyl)methyl)amino)-N-(thiazol-2-yl)benzenesulfonamide] |
| 27 | NC1CCCC(Nc2cc(F)c(S(=O)(=O)Nc3nccs3)cc2Cl)C1 (stereo not shown) [Example 28, 4-((3-Aminocyclohexyl)amino)-5-chloro-2-fluoro-N-(thiazol-2-yl)benzenesulfonamide] |
| 74 | NC1(CCNc2cc(F)c(S(=O)(=O)Nc3nccs3)cc2Cl)CCCCC1 [Example 29, 4-((2-(1-Aminocyclohexyl)ethyl)amino)-5-chloro-2-fluoro-N-(thiazol-2-yl)benzenesulfonamide] |
| 12 | CC1CC(C)(C)C(CNc2cc(F)c(S(=O)(=O)Nc3nccs3)cc2Cl)C1N (stereo not shown) [Example 30, 4-(((5-Amino-2,2,4-trimethylcyclopentyl)methyl)amino)-5-chloro-2-fluoro-N-(thiazol-2-yl)benzenesulfonamide] |
| 12 | NC1CCCC1CNc1cc(F)c(S(=O)(=O)Nc2nccs2)cc1Cl (stereo not shown) [Example 31, 4-(((2-Aminocyclopentyl)methyl)amino)-5-chloro-2-fluoro-N-(thiazol-2-yl)benzenesulfonamide] |
| 28 | NCC1CCCC(CNc2cc(F)c(S(=O)(=O)Nc3nccs3)cc2Cl)C1 (stereo not shown) [Example 32, 4-(((3-(Aminomethyl)cyclohexyl)methyl)amino)-5-chloro-2-fluoro-N-(thiazol-2-yl)benzenesulfonamide] |
| 101 | O=S(=O)(Nc1nccs1)c1cc(Cl)c(NCCC2(O)CCCC2)cc1F [Example 35, 5-Chloro-2-fluoro-4-((2-(1-hydroxycyclopentyl)ethyl)amino)-N-(thiazol-2-yl)benzenesulfonamide] |
